Like-named read-outs stand apart in the source and are kept apart here.
Target: human μ-opiate receptor (Homo sapiens, UniProt P35372)
Assay: Affinity for the human μ-opiate receptor ([3H]-naloxone displacement, SPA, CHO-K1 membrane preparation)
Type: binding
Conditions: for inhibition at 1 µM: read-out: μ-Opioid receptor, % inhibition [1 μM]; for Ki: read-out: μ-Opioid receptor, Ki

human μ-opiate receptor, sequence (P35372 whole entry): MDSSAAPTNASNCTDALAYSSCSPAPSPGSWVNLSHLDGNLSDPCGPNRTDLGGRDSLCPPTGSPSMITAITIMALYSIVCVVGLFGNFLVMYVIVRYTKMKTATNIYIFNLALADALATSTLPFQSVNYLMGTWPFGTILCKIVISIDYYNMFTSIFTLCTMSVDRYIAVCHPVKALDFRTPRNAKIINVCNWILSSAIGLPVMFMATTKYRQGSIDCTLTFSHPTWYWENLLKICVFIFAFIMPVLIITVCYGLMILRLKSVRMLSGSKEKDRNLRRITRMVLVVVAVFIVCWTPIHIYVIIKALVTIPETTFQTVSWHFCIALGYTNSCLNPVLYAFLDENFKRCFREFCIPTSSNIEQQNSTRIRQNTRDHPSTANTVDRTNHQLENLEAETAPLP

Compound | inhibition at 1 µM | Ki | μ-Opioid receptor, % inhibition [1 μM] | μ-Opioid receptor, % inhibition [1 μM] (1 µM) | Ki (acylated amines (Table 20))
CN(C)C(c1cccc(F)c1)C1CCC(CNC(=O)c2ccc(F)c(C(F)(F)F)c2)CC1 (stereo not drawn) [compound 350, N-{4-[dimethylamino-(3-fluoro-phenyl)-methyl]-cyclohexylmethyl}-4-fluoro-3-trifluoromethyl-benzamide] | 89% | 37 nM | – | – | –
CCSc1ncccc1C(=O)NCC1CCC(C(c2ccc(Cl)cc2)N(C)C)CC1 (stereo not drawn) [compound 351, N-{4-[(4-chloro-phenyl)-dimethylamino-methyl]-cyclohexylmethyl}-2-ethyl-sulfanyl-nicotinamide] | – | 58 nM | 89% | – | –
Cc1ccc(Oc2ncccc2C(=O)NCC2CCC(C(c3cccs3)N(C)C)CC2)cc1 (stereo not drawn) [compound 352, N-[4-(dimethylamino-thiophen-2-yl-methyl)-cyclohexylmethyl]-2-p-tolyloxy-nicotinamide] | 87% | – | – | – | –
Cc1oc(-c2ccccc2)cc1C(=O)NCC1CCC(C(c2cccc(F)c2)N(C)C)CC1 (stereo not drawn) [compound 353, 2-methyl-5-phenyl-furan-3-carboxylic acid {4-[dimethylamino-(3-fluoro-phenyl)-methyl]-cyclohexylmethyl}-amide] | 87% | 96 nM | – | – | –
CN(C)C(c1ccc(Cl)cc1)C1CCC(CNC(=O)c2ccccc2Cl)CC1 (stereo not drawn) [compound 354, 2-chloro-N-{4-[(4-chloro-phenyl)-dimethylamino-methyl]-cyclohexylmethyl}-benzamide] | 86% | 53 nM | – | – | –
CN(C)C(c1ccccc1)C1CCC(CNC(=O)c2cccnc2Cl)CC1 (stereo not drawn) [compound 355, 2-chloro-N-[4-(dimethylamino-phenyl-methyl)-cyclohexylmethyl]-nicotinamide] | 86% | 120 nM | – | – | –
CCCc1ccc(C(=O)NCC2CCC(C(c3cccs3)N(C)C)CC2)cc1 (stereo not drawn) [compound 356, N-[4-(dimethylamino-thiophen-2-yl-methyl)-cyclohexylmethyl]-4-propyl-benzamide] | 86% | 120 nM | – | – | –
CN(C)C(c1ccccc1)C1CCC(CNC(=O)c2cccc(Br)c2)CC1 (stereo not drawn) [compound 358, 3-bromo-N-[4-(dimethylamino-phenyl-methyl)-cyclohexylmethyl]-benzamide] | 86% | 11 nM | – | – | –
CN(C)C(c1ccc(F)cc1)C1CCC(CNC(=O)Cc2cccs2)CC1 (stereo not drawn) [compound 359, N-{4-[dimethylamino-(4-fluoro-phenyl)-methyl]-cyclohexylmethyl}-2-thiophen-2-yl-acetamide] | 86% | – | – | – | –
CN(C)C(c1ccccc1)C1CCC(CNC(=O)c2ccc(Cl)cc2Cl)CC1 (stereo not drawn) [compound 361, 2,4-dichloro-N-[4-(dimethylamino-phenyl-methyl)-cyclohexylmethyl]-benzamide] | 85% | 42 nM | – | – | –
Cc1cccc(C(=O)NCC2CCC(C(c3ccccc3)N(C)C)CC2)c1 (stereo not drawn) [compound 362, N-[4-(dimethylamino-phenyl-methyl)-cyclohexylmethyl]-3-methyl-benzamide] | 85% | 60 nM | – | – | –
CN(C)C(c1cccc(F)c1)C1CCC(CNC(=O)c2ccccc2Br)CC1 (stereo not drawn) [compound 363, 2-bromo-N-{4-[dimethylamino-(3-fluoro-phenyl)-methyl]-cyclohexylmethyl}-benzamide] | 85% | 38 nM | – | – | –
CN(C)C(c1cccc(F)c1)C1CCC(CNC(=O)c2csc(-c3ccccc3)n2)CC1 (stereo not drawn) [compound 365, 2-phenyl-thiazole-4-carboxylic acid {4-[dimethylamino-(3-fluoro-phenyl)-methyl]-cyclohexylmethyl}-amide] | 85% | 74 nM | – | – | –
Cc1cc(C(=O)NCC2CCC(C(c3cccs3)N(C)C)CC2)n(C(C)(C)C)n1 (stereo not drawn) [compound 366, 2-tert-butyl-5-methyl-2H-pyrazole-3-carboxylic acid [4-(dimethylamino-thiophen-2-yl-methyl)-cyclohexylmethyl]-amide] | 85% | 56 nM | – | – | –
CC(C)S(=O)(=O)c1csc(C(=O)NCC2CCC(C(c3cccs3)N(C)C)CC2)c1Cl (stereo not drawn) [compound 367, 3-chloro-4-(propane-2-sulfonyl)-thiophene-2-carboxylic acid [4-(dimethylamino-thiophen-2-yl-methyl)-cyclohexylmethyl]-amide] | 85% | 110 nM | – | – | –
COc1ccccc1C(=O)NCC1CCC(C(c2cccc(F)c2)N(C)C)CC1 (stereo not drawn) [compound 368, N-{4-[dimethylamino-(3-fluoro-phenyl)-methyl]-cyclohexylmethyl}-2-methoxy-benzamide] | 84% | 34 nM | – | – | –
CN(C)C(c1ccc(Cl)cc1)C1CCC(CNC(=O)c2cccc(C(F)(F)F)c2)CC1 (stereo not drawn) [compound 369, N-{4-[(4-chloro-phenyl)-dimethylamino-methyl]-cyclohexylmethyl}-3-trifluoromethyl-benzamide] | 84% | 68 nM | – | – | –
CN(C)C(c1ccc(F)cc1)C1CCC(CNC(=O)C2(c3ccc(Cl)cc3)CCCC2)CC1 (stereo not drawn) [compound 370, 1-(4-chloro-phenyl)-cyclopentane-carboxylic acid {4-[dimethylamino-(4-fluoro-phenyl)-methyl]-cyclohexylmethyl}-amide] | 84% | 81 nM | – | – | –

Compound | inhibition at 1 µM | Ki | μ-Opioid receptor, % inhibition [1 μM] | μ-Opioid receptor, % inhibition [1 μM] (1 µM) | Ki (acylated amines (Table 20))
CN(C)C(c1cccc(F)c1)C1CCC(CNC(=O)c2cc(Cl)cc(Cl)c2)CC1 (stereo not drawn) [compound 371, 3,5-dichloro-N-{4-[dimethylamino-(3-fluoro-phenyl)-methyl]-cyclohexylmethyl}-benzamide] | 84% | 130 nM | – | – | –
Cc1oc(-c2ccccc2)cc1C(=O)NCC1CCC(C(c2cccc(F)c2)N(C)C)CC1 (stereo not drawn) [compound 373, 2-methyl-5-phenyl-furan-3-carboxylic acid {4-[dimethylamino-(3-fluoro-phenyl)-methyl]-cyclohexylmethyl}-amide] | – | 61 nM | – | 84% | –
CN(C)C(c1ccccc1)C1CCC(CNC(=O)c2cccnc2Sc2ccc(Cl)cc2)CC1 (stereo not drawn) [compound 374, 2-(4-chloro-phenylsulfanyl)-N-[4-(dimethylamino-phenyl-methyl)-cyclohexyl-methyl]-nicotinamide] | 84% | – | – | – | –
CCn1nc(C)c(Br)c1C(=O)NCC1CCC(C(c2cccs2)N(C)C)CC1 (stereo not drawn) [compound 375, 4-bromo-2-ethyl-5-methyl-2H-pyrazole-3-carboxylic acid [4-(dimethylamino-thiophen-2-yl-methyl)-cyclohexylmethyl]-amide] | 84% | – | – | – | –
COc1c(C(=O)NCC2CCC(C(c3ccc(F)cc3)N(C)C)CC2)csc1Cl (stereo not drawn) [compound 376, 5-chloro-4-methoxy-thiophene-3-carboxylic acid {4-[dimethylamino-(4-fluoro-phenyl)-methyl]-cyclohexylmethyl}-amide] | 84% | 40 nM | – | – | –
Cc1cc(C(=O)NCC2CCC(C(c3ccccc3)N(C)C)CC2)no1 (stereo not drawn) [compound 379, 5-methyl-isoxazole-3-carboxylic acid [4-(dimethylamino-phenyl-methyl)-cyclohexylmethyl]-amide] | 83% | – | – | – | –
CN(C)C(CCc1ccccc1)C1CCC(CNC(=O)c2csc3ccccc23)CC1 (stereo not drawn) [compound 380, benzo[b]thiophene-3-carboxylic acid [4-(1-dimethylamino-3-phenyl-propyl)-cyclohexylmethyl]-amide] | 83% | 95 nM | – | – | –
CSc1ncccc1C(=O)NCC1CCC(C(c2ccc(F)cc2)N(C)C)CC1 (stereo not drawn) [compound 381, N-{4-[dimethylamino-(4-fluoro-phenyl)-methyl]-cyclohexylmethyl}-2-methyl-sulfanyl-nicotinamide] | – | 99 nM | 83% | – | –
Cc1ccc(Oc2ncccc2C(=O)NCC2CCC(C(c3ccc(Cl)cc3)N(C)C)CC2)cc1 (stereo not drawn) [compound 382, N-{4-[(4-chloro-phenyl)-dimethylamino-methyl]-cyclohexylmethyl}-2-p-tolyloxy-nicotinamide] | 83% | – | – | – | –
Cc1ccccc1C(=O)NCC1CCC(C(c2cccc(F)c2)N(C)C)CC1 (stereo not drawn) [compound 384, N-{4-[dimethylamino-(3-fluoro-phenyl)-methyl]-cyclohexylmethyl}-2-methyl-benzamide] | 82% | 38 nM | – | – | –
Cc1cc(C(=O)NCC2CCC(C(c3ccc(Cl)cc3)N(C)C)CC2)no1 (stereo not drawn) [compound 385, 5-methyl-isoxazole-3-carboxylic acid {4-[(4-chloro-phenyl)-dimethylamino-methyl]-cyclohexylmethyl}-amide] | 82% | 68 nM | – | – | –
CN(C)C(c1ccccc1)C1CCC(CNC(=O)c2cncc(Br)c2)CC1 (stereo not drawn) [compound 386, 5-bromo-N-[4-(dimethylamino-phenyl-methyl)-cyclohexylmethyl]-nicotinamide] | 82% | 100 nM | – | – | –
CCC(C)C(=O)NCC1CCC(C(c2ccccc2)N(C)C)CC1 (stereo not drawn) [compound 387, N-[4-(dimethylamino-phenyl-methyl)-cyclohexylmethyl]-2-methyl-butyramide] | 81% | 70 nM | – | – | –
CCSc1ncccc1C(=O)NCC1CCC(C(c2cccc(F)c2)N(C)C)CC1 (stereo not drawn) [compound 388, N-{4-[dimethylamino-(3-fluoro-phenyl)-methyl]-cyclohexylmethyl}-2-ethylsulfanyl-nicotinamide] | 81% | 36 nM | – | – | –
CCn1nc(C)c(Br)c1C(=O)NCC1CCC(C(c2ccccc2)N(C)C)CC1 (stereo not drawn) [compound 390, 4-bromo-2-ethyl-5-methyl-2H-pyrazole-3-carboxylic acid [4-(dimethylamino-phenyl-methyl)-cyclohexylmethyl]-amide] | 81% | – | – | – | –
CC(Oc1ccccc1)C(=O)NCC1CCC(C(c2ccc(Cl)cc2)N(C)C)CC1 (stereo not drawn) [compound 391, N-{4-[(4-chloro-phenyl)-dimethylamino-methyl]-cyclohexylmethyl}-2-phenoxy-propionamide] | 81% | 26 nM | – | – | –
CN(C)C(c1ccccc1)C1CCC(CNC(=O)c2cc([N+](=O)[O-])cc([N+](=O)[O-])c2)CC1 (stereo not drawn) [compound 392, N-[4-(dimethylamino-phenyl-methyl)-cyclohexylmethyl]-3,5-dinitro-benzamide] | 80% | – | – | – | 180 nM
